compound: CC(C)(C)c1nc(-c2cccc(NS(=O)(=O)c3c(F)cccc3F)c2F)c(-c2ccnc(N)n2)s1 [Dabrafenib] + CS(=O)(=O)CCNCc1ccc(-c2ccc3ncnc(Nc4ccc(OCc5cccc(F)c5)c(Cl)c4)c3c2)o1 [Lapatinib] (partner 2 µM); assay: relative viability (nuclei count vs DMSO), 5 days (fraction); higher = more cells survive; details: first compound 0.003 µM
Method in brief: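 Lung cancer cell lines, seeded in 1536-well plates, were treated the following day by pin tool with a single drug or with five library-drug doses (not always all listed) in √10 steps on top of a fixed anchor-drug dose. Cells were fixed and nuclei stained in one step after 5 days, and nuclei were counted. Relative viability is the nuclei count for treated wells divided by that for vehicle wells, reported as medians of duplicate plates.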

Cell Line	relative viability
EMC-BAC-2	0.87
UMC-11	1.01
NCI-H596	0.994
HCC-827	0.133
COR-L 105	0.273
NCI-H2126	0.735
HCC-44	0.996
NCI-H1651	0.849
NCI-H1755	0.957
PC-14	0.282
HCC-15	0.788
LU99A	0.974
EKVX	0.172
COR-L23	0.984
NCI-H1437	0.687
RERF-LC-KJ	0.851
NCI-H460	1.04
H3255	0.186

same assay, conditions: first compound 0.009487 µM

Cell Line	relative viability
EMC-BAC-2	0.775
UMC-11	1.08
NCI-H650	1.1
NCI-H596	1.11
HCC-827	0.228
COR-L 105	0.367
NCI-H2126	0.783
NCI-H647	1.24
LOU-NH91	0.789
HCC-78	0.697
HCC-44	0.982
NCI-H1651	0.818
NCI-H1755	1.07
HOP-62	1.07
PC-14	0.418
A-427	1.06
NCI-H1355	1.11
NCI-H1792	0.881
HCC-15	0.809
LU99A	0.971
EKVX	0.245
COR-L23	1.1
NCI-H1437	0.756
RERF-LC-KJ	0.9
NCI-H1734	1.02
BEN	0.805
NCI-H460	1.03
H3255	0.264
SK-LU-1	0.804
NCI-H23	1.21

same assay, conditions: first compound 0.03 µM

Cell Line	relative viability
EMC-BAC-2	0.877
UMC-11	0.812
NCI-H650	0.623
NCI-H596	0.814
HCC-827	0.185
COR-L 105	0.3
NCI-H2126	0.75
NCI-H647	0.812
LOU-NH91	0.683
HCC-78	0.702
HCC-44	1.11
NCI-H1651	0.84
NCI-H1755	0.928
HOP-62	0.822
PC-14	0.363
A-427	0.878
NCI-H1355	1.03
NCI-H1792	0.813
HCC-15	0.891
LU99A	0.994
EKVX	0.192
COR-L23	0.92
NCI-H1437	0.911
RERF-LC-KJ	0.893
NCI-H1734	0.629
NCI-H460	1.05
H3255	0.213
SK-LU-1	0.653
NCI-H23	1.08

same assay, conditions: first compound 0.09487 µM

Cell Line	relative viability
EMC-BAC-2	0.926
UMC-11	1.08
NCI-H650	0.514
NCI-H596	1.04
HCC-827	0.185
COR-L 105	0.375
NCI-H2126	0.842
NCI-H647	1.01
LOU-NH91	0.772
HCC-78	0.754
HCC-44	0.86
NCI-H1651	0.938
NCI-H1755	1
HOP-62	0.889
PC-14	0.317
A-427	0.793
NCI-H1792	0.792
HCC-15	0.739
LU99A	0.852
EKVX	0.203
COR-L23	0.874
NCI-H1437	0.785
RERF-LC-KJ	0.907
NCI-H1734	0.747
BEN	0.81
NCI-H460	0.925
H3255	0.316
SK-LU-1	0.664
NCI-H23	0.712

same assay, conditions: first compound 0.3 µM

Cell Line	relative viability
EMC-BAC-2	0.916
UMC-11	0.959
NCI-H650	0.435
NCI-H596	1.05
HCC-827	0.186
COR-L 105	0.426
NCI-H2126	0.89
NCI-H647	0.893
LOU-NH91	0.802
HCC-78	0.838
HCC-44	0.964
NCI-H1651	0.834
NCI-H1755	0.986
HOP-62	0.784
PC-14	0.364
A-427	1.05
NCI-H1355	1.19
NCI-H1792	0.912
HCC-15	0.732
LU99A	0.751
EKVX	0.321
COR-L23	0.913
NCI-H1437	0.816
RERF-LC-KJ	1.04
NCI-H1734	0.785
BEN	0.841
